Values joined by “and” are separate entries in the source; they are usually repeats but may differ in a detail not shown here. Equal entries are not always repeated.
What was measured:
[1] = system: AMPKα1α2+/+ (control) primary hepatocytes; experiment: RNA-seq transcriptome analysis of primary hepatocytes; format: cell-based, mouse
Protocol: Primary hepatocytes were pretreated for 15 min with BAY-3827 5 μM at 37°C in MEM-199 supplemented with penicillin G (100 U/ml), streptomycin ([…]), and 100 nM dexamethasone followed by addition of MK-8722 10 μM treatment. Six hours posttreatment, the cells were washed twice with room-temperature PBS. RNA was isolated using QIAwave RNAeasy kit (catalog no. 74104) with on-column deoxyribonuclease (DNAse) treatment using Qiagen RNase-free DNase set (catalog no. 79256) following the manufacturer’s protocol. Messenger RNA-seq was performed by the Single-Cell Omics platform at the Novo Nordisk Foundation Center for Basic Metabolic Research. Libraries were prepared using the Universal Plus mRNA-seq protocol (Tecan) as recommended by the manufacturer. Libraries were quantified with NuQuant using the CLARIOstar Plate Reader (BMG Labtech), quality checked using a TapeStation instrument (Agilent Technologies), and subjected to 52–base pair paired-end sequencing on a NovaSeq 6000 (Illumina). The sequencing analysis pipeline nf-core ([69]) was used, with alignment and quantification selection of STAR and Salmon, and mouse GRCm38 set as the reference genome. Unique molecular identifier (UMI)-based deduplication was performed using UMI tools, and sorting and index alignments were completed with SAMtools as part of the pipeline. Differential expression analysis was carried out using the R package edgeR ([70]) and a batch-effect removal was performed in limma ([71]) to account for the variability induced by two mice (291 + 295) from which cells with the same treatments had been pooled to obtain the required cell confluence. Venn diagrams were produced using the R package ggvenn ([72]). […] Heatmaps of log2 counts per million normalized counts were produced using R package pheatmap ([73]). GO enrichment analysis was performed using the R package clusterProfiler version 4.6.2 ([74]) setting FDR < 0.05 with reference organism specified as mouse, pAdjustMethod was set to BH, and ontology category set to biological process, with a qvalueCutoff of 0.05. Visualization analyses were conducted in RStudio version 4.2.0 ([75]).

HEK293 cells = experiment: RSK signaling immunoblot in HEK293 cells; format: cell-based, human
Protocol: HEK293 cells (Invitrogen, R75007) were seeded at a density of 500,000 cells per well in six-well cell culture plates (Corning Incorporated Costar #3516) in Dulbecco’s modified Eagle medium (DMEM) high-glucose + GlutaMAX Supplement, pyruvate (Thermo Fisher Scientific, catalog no. 31966-021) containing penicillin G (100 U/ml), streptomycin (100 μg/ml), and 10% (v/v) FBS. Once attached, the next day, the media were changed to serum-free and the cells were starved for 16 hours followed by compound treatment with BAY-3827, BI-D1870 (MedChemExpress, #HY-10510) ± 10 μM MK-2206 dihydrochloride (MedChemExpress, #HY-10358) with 30 min incubation at 37°C followed by coincubation with […] (MedChemExpress, #HY-18739) or vehicle for additional 30 min with final assay DMSO concentration of 0.13%. All cell lines used here were tested monthly for mycoplasma and tested negative.
Following compound treatment, the cells were washed with room temperature PBS and lysed on ice with the addition of lysis buffer [50 mM tris-HCl (pH 7.5), 150 mM NaCl, 1 mM EDTA, 1 mM EGTA, 0.27 M sucrose, 1% w/v Triton X-100, 20 mM glycerol-2 phosphate disodium, 50 mM NaF, and 5 mM Na4P2O7.10 H2O] containing proteases and phosphatase inhibitors [0.5 mM phenylmethylsulfonyl fluoride (PMSF), 1 mM benzamidine HCl, leupeptin (1 μg/ml), pepstatin A (1 μg/ml), 1 μM microcystin-LR, 1 mM Na3VO4, and 1 mM DTT]. Lysates were centrifuged at 10,000g, 4°C for 10 min, and protein concentration of the supernatant was determined with the Pierce Bradford Protein Assay Kit (Thermo Fisher Scientific, #23200) and read on the Hidex Plate Reader (software version 0.5.64.0). Samples were prepared in Laemmli sample buffer (tris 200 mM, 8% SDS, EDTA 2 mM, and 40% glycerol) supplemented with 10% DTT and boiled for 5 min at 100°C. Ten micrograms of protein per sample was run on a Criterion tris-glycine polyacrylamide gel (Bio-Rad, #5678095) and transferred to a nitrocellulose membrane. For cell signaling experiments in HEK293 cells, the samples were run on a Criterion TGX stain-free precast gel (Bio-Rad, catalog no. 5678085) with transfer to a polyvinylidene difluoride membrane performed in Bio-Rad Criterion blotter (#1704071) using tris-glycine transfer buffer (Bio-Rad, #1610734) following the manufacturer’s instructions. The membranes were probed at 4°C overnight in a 4% BSA TBS-T solution containing 0.02% sodium azide with the following antibodies where appropriate: Phospho-ACC (Ser^79) (1:1000, Cell Signaling Technology, #3661S), ACC (C83B10) (1:1000, Cell Signaling Technology, #3676S), phospho-Raptor (Ser^792) (1:1000, Cell Signaling Technology, #2083S), Raptor (24C12) (1:1000, Cell Signaling Technology, #2280S), GSK3αβ (1:2000, Sigma-Aldrich, #04-903), phospho-GSK3αβ (Ser^21/9) (D17D2) (1:1000, Cell Signaling Technology, #8566S), ERK1/2 (137F5) (1:1000, Cell Signaling Technology, #4695), phospho-ERK1/2 (Thr^202/Tyr^204) (D13.14.4E) (1:1000, Cell Signaling Technology, #4370), phospho-AMPKα (Thr^172) (40H9) (1:1000, Cell Signaling Technology, #2535S), AMPKα (1:1000, Cell Signaling Technology, #2532S), anti–glyceraldehyde-3-phosphate dehydrogenase antibody (1:5000, Cell Signaling Technology, #G8795), and vinculin (1:1000, Cell Signaling Technology, #13901). Membranes were scanned using the Odyssey Fc LiCor system (exposure time, 30 s) with densitometry analysis performed using LiCor Image Studio Lite normalizing to control loading protein. Figures were made using GraphPad Prism v10.

For `CCc1ccccc1C(=O)Nc1n[nH]c2c(C)c(F)c(C3C(C#N)=C(C)N(C)C(C)=C3C#N)cc12` [BAY-3827, N-[5-(3,5-dicyano-1,2,6-trimethyl-4H-pyridin-4-yl)-6-fluoro-7-methyl-1H-indazol-3-yl]-2-ethylbenzamide], the “LogFC ADORA2B” value ([1]; 5 μM + MK-8722 versus MK-8722) was −1.3062, the “LogFC AVPR1A” value ([1]; 5 μM + MK-8722 versus MK-8722) was −1.708 and the “LogFC EHHADH” value ([1]; 5 μM + MK-8722 versus MK-8722) was −1.5955. The “LogFC HAL” value ([1]; 5 μM + MK-8722 versus MK-8722) was −1.348, the “LogFC HMGCR” value ([1]; 5 μM + MK-8722 versus MK-8722) was −0.1621 and the “LogFC HPGD” value ([1]; 5 μM + MK-8722 versus MK-8722) was −1.745. The “LogFC LIPE” value ([1]; 5 μM + MK-8722 versus MK-8722) was −0.2816, the “LogFC LPIN2” value ([1]; 5 μM + MK-8722 versus MK-8722) was −0.5277 and the “LogFC PFKFB2” value ([1]; 5 μM + MK-8722 versus MK-8722) was −0.5421. The “LogFC PLIN5” value ([1]; 5 μM + MK-8722 versus MK-8722) was −1.3, the “LogFC SP1” value ([1]; 5 μM + MK-8722 versus MK-8722) was −0.4397 and the “LogFC TBC1D15” value ([1]; 5 μM + MK-8722 versus MK-8722) was −0.4895. For the same compound, the “LogFC TBC1D17” value ([1]; 5 μM + MK-8722 versus MK-8722) was −0.5598, the “MK-8722–stimulated AMPK-dependent genes down-regulated” value ([1]; 5 μM + MK-8722 versus MK-8722) was ~ 30% and 30.1% and the “logFC CALCOCO1 (RSK2 gene)” value ([1]; 5 μM + MK-8722 versus MK-8722) was -0.7893. For the same compound, the “logFC CENPE (RSK1 gene)” value ([1]; 5 μM + MK-8722 versus MK-8722) was -1.28, the “logFC CENPI (RSK1 gene)” value ([1]; 5 μM + MK-8722 versus MK-8722) was -0.6534 and the “logFC CENPW (RSK1 gene)” value ([1]; 5 μM + MK-8722 versus MK-8722) was -0.4735. For the same compound, the “logFC DSN1 (RSK1 gene)” value ([1]; 5 μM + MK-8722 versus MK-8722) was -0.789, the “logFC FN1 (RSK1 gene)” value ([1]; 5 μM + MK-8722 versus MK-8722) was -0.2178 and the “logFC MASTL (RSK1 gene)” value ([1]; 5 μM + MK-8722 versus MK-8722) was -0.8494. For the same compound, the “logFC NEK2 (RSK1 gene)” value ([1]; 5 μM + MK-8722 versus MK-8722) was -1.199, the “logFC SPC25 (RSK1 gene)” value ([1]; 5 μM + MK-8722 versus MK-8722) was -0.6826 and the “logFC STAT5B” value ([1]; 5 μM + MK-8722 versus MK-8722) was -0.6006. For the same compound, the “differentially expressed genes that are down-regulated” value ([1]; 5 μM + MK-8722 versus MK-8722, 2511 significant genes) was 61.2%, the PPARGC1A gene counts ([1]; 5 μM + MK-8722 versus MK-8722 alone) was “significantly reduced” and the “PMA-stimulated pGSK3αβ (surrogate of RSK activity)” value (HEK293 cells; 10 μM, in the presence of MK-2206 (10 μM)) was “inhibited to the same extent”. For the same compound, the ACC1 phosphorylation (HEK293 cells; serum-starved HEK293, 1 and 10 μM) was “dose-dependent reduction”.
